This passage reports Ki results from article PMC10179589, “Membrane Permeability Is Required for the Vasodilatory Effect of Carbonic Anhydrase Inhibitors in Porcine Retinal Arteries” (International Journal of Molecular Sciences, 2023).

Each structure is given as a SMILES string. Counter-ions that a name gives are not always drawn.

One experiment has as its target T1, hCA I (Homo sapiens, UniProt P00915).
T1 construct: gene CA1; cytosolic isoform
As to the kind of experiment: stopped-flow CA inhibition assay. The class given is biochemical. The text has this: stopped-flow CA inhibition assay on hCA I

The next experiment has as its target T2, hCA II (Homo sapiens, UniProt P00918).
T2 construct: gene CA2; cytosolic isoform
As to the kind of experiment: stopped-flow CA inhibition assay. In kind it is biochemical. The source says: stopped-flow CA inhibition assay on hCA II

T1 sequence (P00915 2-261): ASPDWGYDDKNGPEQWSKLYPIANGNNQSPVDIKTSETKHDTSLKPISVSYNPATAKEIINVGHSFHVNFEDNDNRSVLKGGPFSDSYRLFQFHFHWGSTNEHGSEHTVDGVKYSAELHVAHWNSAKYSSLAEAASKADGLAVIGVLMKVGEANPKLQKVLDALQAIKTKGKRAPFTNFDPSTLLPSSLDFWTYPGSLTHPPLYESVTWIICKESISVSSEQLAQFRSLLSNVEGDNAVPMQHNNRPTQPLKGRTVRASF

Consider `N=C(N)NC(=N)Nc1cccc(S(N)(=O)=O)c1` [compound 4, 3-(3-Carbamimidoylguanidino)benzenesulfonamide hydrochloride salt], for which the Ki (usually the equilibrium dissociation constant of an inhibitor or competing ligand from its target) at hCA I turned out to be 707 nM; at hCA II it was 265 nM.
As for `N=C(N)NC(=N)Nc1ccc(S(N)(=O)=O)cc1` [compound 2, 4-(3-Carbamimidoylguanidino)benzenesulfonamide hydrochloride salt], the inhibition constant Ki was 361 nM on hCA I and 135 nM at hCA II.
